Source: patent EP4810052A2, “HCRHR2 SELECTIVE POLYPEPTIDES” (Gubra A/S, priority 2023, dated 2026)
Where two headings read alike, the source gives them in different places. Starred links: 1 amine or outer side, 2 acyl side, 3 side chain; linkers in the order of their positions; H or OH if unused. Residues, ends and D or L forms follow the SMILES beside them. Groups on a side chain read outwards from the residue. *: point of attachment. C20 diacid = O=C(O)CCCCCCCCCCCCCCCCCCC(=O)*; γGlu = O=C(O)[C@H](CCC(=O)[*:2])N[*:1]; AEEA = NCCOCCOCC(=O)O

What was measured:
[1] = Thioflavin T fibril formation assay of purified peptides; format: physicochemical; parameters: key: Amyloid fibril formation detected by an increase in ThT fluorescence was denoted with "Yes"; samples without increasing ThT fluorescence hence not forming amyloid fibrils were denoted "No"
How it was run: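 Fibril formation read as rising ThT emission at 480 nm (450 nm excitation), 4 µM ThT, over 96 h at 40°C with alternating 5-min rest and 700 rpm shaking cycles, in triplicate. Samples were 200 µM compound in 50 mM phosphate at various pH values, or co-formulated at 200 µM in semaglutide product at pH 7.4.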

[2] = Chemical stability of purified peptides (RP-UHPLC main peak purity loss); format: physicochemical
How it was run: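 Purity loss is the drop in RP-UHPLC main-peak area fraction (215 nm detection, C8 column at 50 °C) from time zero to day 14 and/or day 28 at 40 °C. Samples held roughly 1.0 mg/ml peptide in 50 mM phosphate, pH 7.5, with other pH targets also tested.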

[3] = PK in mice; format: in vivo; parameters: T½ / MRT: unit: h; settings: for half-life: read-out: T½ (converted)
Experimental: Lean male NMRI/RjHan mice were obtained from JanVier (JanVier Labs, France) at 6 weeks of age. The animals were single housed under a 12/12 h dark-light cycle, light off at 3 PM. Room temperature was controlled to 22°C ± 1°C, with 60 % ± 20% humidity. Animals had ad libitum access to regular rodent chow (Altromin 1324, Brogaarden, Denmark) and tap water.
After 2 weeks of acclimatization, the animals were randomized into treatment groups (n=9 per group) based on body weight. Animals were dosed IV with one peptide and SC with another peptide (15 or 50 nmol/kg) Plasma samples were collected for PK analysis at times 0.17, 1, 3, 6, 24, 30, 48, 72 and 96 hours post dosing in a sparse sampling design with 3 mice per group per timepoint. Plasma samples were analyzed using LC-MSMS and PK parameters were estimated by Non-Compartmental Analysis (NCA).

[4] = biological target: T1, hCRHR2a (Homo sapiens, UniProt Q13324); assay: cAMP potency, transiently transfected CHO-K1 cells, hCRHR2a; format: cell-based; settings: transiently transfected CHO-K1, average n=3; read-out: Transient cell system EC50 (nM) hCRHR 2a
T1 construct: DYK (FLAG); host or cells: CHO-K1, transiently transfected
T1 sequence (Q13324 1-411): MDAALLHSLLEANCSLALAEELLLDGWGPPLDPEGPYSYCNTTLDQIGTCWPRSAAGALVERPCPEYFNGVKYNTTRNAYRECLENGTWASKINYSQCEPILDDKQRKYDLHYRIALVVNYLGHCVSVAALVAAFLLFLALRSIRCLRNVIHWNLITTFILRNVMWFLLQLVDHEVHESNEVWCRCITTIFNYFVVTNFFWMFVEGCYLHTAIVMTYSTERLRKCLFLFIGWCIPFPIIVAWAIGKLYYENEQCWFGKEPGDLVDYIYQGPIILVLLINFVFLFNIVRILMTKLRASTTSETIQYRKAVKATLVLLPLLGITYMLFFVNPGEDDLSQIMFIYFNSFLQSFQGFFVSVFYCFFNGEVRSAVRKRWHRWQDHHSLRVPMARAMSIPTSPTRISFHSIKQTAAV

[5] = tested on: pCRHR1; assay: cAMP potency, transiently transfected CHO-K1 cells, pCRHR1; format: cell-based, pig; settings: transiently transfected CHO-K1, average n=3; read-out: Transient cell system EC50 (nM) pCRHR 1
Experimental: Selected peptides were tested for potency on different species (mouse, rat, porcine) using transiently transfected CHO-K1 cells using the general procedure.

[6] = male, NMRI/RjHan, in vivo, iv, Mouse, 50 nmol/kg i.v.
[7] = male, NMRI/RjHan, in vivo, sc, Mouse, 50 nmol/kg s.c.

For CC[C@H](C)[C@H](N)C(=O)N[C@H](C(=O)N[C@@H](CC(C)C)C(=O)N[C@@H](CO)C(=O)N[C@@H](CC(C)C)C(=O)N[C@@H](CC(=O)O)C(=O)N[C@H](C(=O)N1CCC[C@H]1C(=O)N[C@H](C(=O)NCC(=O)N[C@@H](CC(C)C)C(=O)N[C@@H](CC(C)C)C(=O)N[C@@H](CCC(N)=O)C(=O)N[C@H](C(=O)N[C@@H](CC(C)C)C(=O)N[C@@H](CC(C)C)C(=O)N[C@@H](CCC(=O)O)C(=O)N[C@@H](CCC(N)=O)C(=O)N[C@@H](C)C(=O)N[C@@H](CCCNC(=N)N)C(=O)N[C@@H](C)C(=O)N[C@@H](CCCNC(=N)N)C(=O)N[C@@H](C)C(=O)N[C@@H](C)C(=O)N[C@@H](CCCNC(=N)N)C(=O)N[C@@H](CCC(=O)O)C(=O)N[C@@H](CCC(N)=O)C(=O)N[C@@H](C)C(=O)N[C@@H](CCCCNC(=O)COCCOCCNC(=O)COCCOCCNC(=O)CC[C@H](NC(=O)CC[C@H](NC(=O)CCCCCCCCCCCCCCCCCCC(=O)O)C(=O)O)C(=O)O)C(=O)N[C@H](C(=O)N[C@@H](CC(N)=O)C(=O)N[C@@H](C)C(=O)N[C@@H](CCC(=O)O)C(=O)N[C@H](C(=O)N[C@@H](CC(C)C)C(=O)N[C@@H](C)C(=O)N[C@@H](CCC(=O)O)C(=O)N[C@H](C(N)=O)C(C)C)[C@@H](C)CC)[C@@H](C)O)[C@@H](C)CC)[C@@H](C)CC)C(C)C)C(C)C [SEQ ID NO: 3] (H-IVLSLDVPIGLLQILLEQARARAAREQAK([AEEA-AEEA-γGlu-γGlu-C20 diacid])TNAEILAEV-NH2), the “Fibrillation (pH 7.5)” value ([1]; pH 7.5) was “No”, the “Fibrillation (pH 7.5)” value ([1]; pH 7.5, ThT assay) was “No” and the “Chemical stability at pH 7.5 after 14 days at 40°C (% degradation)” value ([2]; pH 7.5, 40°C, 14 days, first value of cell) was -6.1%. The “Chemical stability at pH 7.5 after 28 days at 40°C (% degradation)” value ([2]; pH 7.5, 40°C, 28 days, second value of cell) was -15%, the “Chemical stability at pH 7.5 after 14 days at 40°C (% degradation)” value ([2]; pH 7.5, 14 days, 40°C) was -6.1% and the “Chemical stability at pH 7.5 after 28 days at 40°C (% degradation)” value ([2]; pH 7.5, 28 days, 40°C) was -15%. It also gave an MRT ([3]; Mouse) of 17.5, a T½ ([3]; Mouse) of 13.5 and a bioavailability ([3]; male, NMRI, mouse, in vivo, sc) of 43.1%. It also gave a clearance [3, 6] of under 0.167 mL/min/kg, a half-life [3, 6] of 13.5 h and a Cmax [3, 7] of 141 nM. It also gave a Tmax [3, 7] of 24 h, a half-life [3, 7] of 11.4 h and an EC50 [4] of 0.016 nM. It also gave an EC50 [5] of over 5000 nM.
